Results on 19 sequences are retold here after US20090312265A1, “NOVEL ANTIMICROBIAL PEPTIDES AND USE THEREOF” (priority 2006, published 2009).

In data set [1] the test system is Erythrocytes. It is filed as cell-based. Conditions: 1 h. Here is the method: EDTA-blood was centrifuged at 800 g for 10 min, whereafter plasma and buffy coat were removed. The erythrocytes were washed three times and resuspended in 5% PBS, pH 7.4. The cells were then incubated with end-over-end rotation for 1 h at 37° C. in the presence of peptides (3-60 μM). 2% Triton X-100 (Sigma-Aldrich) served as positive control. The samples were then centrifuged at 800 g for 10 min. The absorbance of hemoglobin release was measured at λ 540 nm and is in the plot expressed as % of TritonX-100 induced hemolysis (FIG. 5 and table 6). The peptides in table 3A (SEQ ID No. 12-18) were evaluated as described above.

Data set [2] can be described thus: Liposome leakage assay (carboxyfluorescein release), PC liposomes. The note with it: scale: Triton X100 = 100% release; for PC + NaCl (CF release, liposome leakage): 10 mM Tris pH 7.4 with additional 150 mM NaCl; for PC − NaCl (CF release, liposome leakage): 10 mM Tris pH 7.4 without NaCl. Here is the method: (§1) Dry lipid films were prepared by dissolving either dioleoylphosphatidylcholine (Avanti Polar Lipids, Alabaster, Ala.) (60 mol %) and cholesterol (Sigma, St Louis, Mo.) (40 mol %), or dioleoylphosphatidylcholine (30 mol %), dioleoylphosphatidic acid (Avanti Polar Lipids, Alabaster, Ala.) (30 mol %) and cholesterol (40 mol %) in chloroform, and then removing the solvent by evaporation under vacuum overnight. Subsequently, buffer solution containing 10 mM Tris, pH 7.4, either with or without additional 150 mM NaCl, was added together with 0.1 M carboxyfluorescein (CF) (Sigma, St Louis, Mo.). After hydration, the lipid mixture was subjected to eight freeze-thaw cycles consisting of freezing in liquid nitrogen and heating to 60° C. Unilamellar liposomes with a diameter of about 130 nm (as found with cryo-TEM; results not shown) were generated by multiple extrusions through polycarbonate filters (pore size 100 nm) mounted in a LipoFast miniextruder (Avestin, Ottawa, Canada). Untrapped carboxyfluorescein was then removed by filtration through two subsequent Sephadex G-50 columns with the relevant Tris buffer as eluent. Both extrusion and filtration was performed at 22° C. In the liposome leakage assay, the well lmown self-quenching of CF was used. Thus, at 100 mM CF is self-quenched, and the recorded fluorescence intensity from liposomes with entrapped CF is low. […] The CF release was determined by monitoring the emitted fluorescence at 520 nm from a liposome dispersion (10 mM lipid in 10 mM Tris pH 7.4). An absolute leakage scale is obtained by disrupting the liposomes at the end of the experiment through addition of 0.8 mM Triton X100 (Sigma, St Louis, Mo.), thereby causing 100% release and dequenching of CF. A SPEX-fluorolog 1650 0.22-m double spectrometer (SPEX Industries, Edison, N.J.) was used for the liposome leakage assay (see Table 4).

Data set [3] can be described thus: Liposome leakage assay (carboxyfluorescein release), PA liposomes. Conditions: scale: Triton X100 = 100% release; for PA + NaCl (CF release, liposome leakage): 10 mM Tris pH 7.4 with additional 150 mM NaCl; for PA − NaCl (CF release, liposome leakage): 10 mM Tris pH 7.4 without NaCl. The protocol: as §1
Data set [4] relates to bacteria. The experiment in a line: Antibacterial activity in vitro. It is filed as cell-based. Here is the method: Radial diffusion assays (RDA) were performed essentially as described earlier (Lehrer, R. I., Rosenman, M., Harwig, S. S., Jackson, R. & Eisenhauer, P. (1991) Ultrasensitive assays for endogenous antimicrobial polypeptides, J Immunol Methods. 137, 167-73.).
Briefly, bacteria (E. coli, P. aeruginosa, S. aureus, B. subtilis) or fungi (C. albicans) were grown to mid-logarithmic phase in 10 ml of full-strength (3% w/v) trypticase soy broth (TSB) (Becton-Dickinson, Cockeysville, Md.). The microorganisms were washed once with 10 mM Tris, pH 7.4. 4×10^6 bacterial cfu or 1×10^5 fungal cfu was added to 5 ml of the underlay agarose gel, consisting of 0.03% (w/v) TSB, 1% (w/v) low-electroendoosmosistype (Low-EEO) agarose (Sigma, St Louise Mo.) and a final concentration of 0.02% (v/v) Tween 20 (Sigma). The underlay was poured into a Ø 85 mm petri dish. After agarose solidified, 4 mm-diameter wells were punched and 6 μl of test sample was added to each well. Plates were incubated at 37° C. for 3 hours to allow diffusion of the peptides. The underlay gel was then covered with 5 ml of molten overlay (6% TSB and 1% Low-EEO agarose in dH2O). Antimicrobial activity of a peptide is visualized as a clear zone around each well after 18-24 hours of incubation at 37° C. for bacteria and 28° C. for Candida albicans.

A short description of data set [5]: CD-spectroscopy, helix content. It counts as physicochemical. Conditions: 10 mM Tris, 10 μM peptide, 37° C.; for Helix content, PA: pH 7.4, PA liposome dispersion (100 μM lipid); for Helix content, PC: pH 7.4, PC liposome dispersion (100 μM lipid); for Helix content, Buffer: pH 7.4, buffer. The protocol:
The CD spectra of the peptides in solution were measured on a Jasco J-810 Spectropolarimeter (Jasco, U.K.). The measurements were performed at 37° C. in a 10 mm quartz cuvet under stirring and the peptide concentration was 10 μM. The effect of on peptide secondary structure of liposomes at a lipid concentration of 100 μM was monitired in the range 200-250 nm. The only peptide conformations observed under the conditions investigated were α-helix and random coil. The fraction of the peptide in α-helical conformation, Xα, is calculated from
where A is the recorded CD signal at 225 nm, and Aα and Ac are the CD signal at 225 nm for a reference peptide in 100% α-helix and 100% random coil conformation, respectively. 100% α-helix and 100% random coil references were obtained from 0.133 mM (monomer concentration) poly-L-lysine in 0.1 M NaOH and 0.1 M HCl, respectively. To account for the instrumental differences between measurements the background value (detected at 250 nm, where no peptide signal is present) was subtracted. Signals from the bulk solution were also corrected for (see Table 5).

For data set [6], the system named is Gram-positive and Gram-negative bacterial, fungal, and viral pathogens. Conditions: Niyonsaba and Ogawa 2005; cited from earlier work.

No end group written: not given here.

Regarding KRKKKGKGWGKKRWPCLRKY [KRK20: F], in data set [1], the “Erythrocytes Hemolysis (%) Mean” value amounted to 3.14%.

As for “GKRKKKGKGLGKKRDPCLRKYK (listed as Homo sapiens) [GKR22]”, in data set [2], the “PC + NaCl (CF release, liposome leakage)” value came out at 4 ± 1 and the “PC − NaCl (CF release, liposome leakage)” value is recorded as 72 ± 8. In data set [3], the “PA + NaCl (CF release, liposome leakage)” value is on record as 2 ± 1 and the “PA − NaCl (CF release, liposome leakage)” value is 42 ± 7. The “antibacterial activity in vitro” value in data set [4] is “shows antibacterial activity in vitro”. Moreover, in data set [5], the “Helix content, PA” value is recorded as 10 ± 3%; the “Helix content, PC” value is on record as 5 ± 2%; the “Helix content, Buffer” value worked out at 8 ± 2%.

Regarding “LKRTGQYKLGSKTGPGQKAIL (listed as Homo sapiens) [LKR21, FGF2_HUMAN aa 127-147]”, in data set [2], the “PC − NaCl (CF release, liposome leakage)” value was found to be 2 ± 1. Besides, in data set [3], the “PA − NaCl (CF release, liposome leakage)” value turned out to be 3 ± 1.

Take “LNQKGIPVRGKKTKKEQKTAH (listed as Homo sapiens) [LNQ21, FGF7_HUMAN aa 167-187]”: in data set [2], the “PC − NaCl (CF release, liposome leakage)” value was found to be 2 ± 1. For the same sequence, the “PA − NaCl (CF release, liposome leakage)” value in data set [3] was determined as 10 ± 1.

For the sequence “GRPRESGKKRKRKRKLKPT (listed as Homo sapiens) [GRP19]”, in data set [2], the “PC + NaCl (CF release, liposome leakage)” value was found to be 4 ± 1 and the “PC − NaCl (CF release, liposome leakage)” value came out at 30 ± 12. Moreover, in data set [3], the “PA + NaCl (CF release, liposome leakage)” value is reported as 5 ± 1 and the “PA − NaCl (CF release, liposome leakage)” value is recorded as 20 ± 2. In data set [4], the “antibacterial activity in vitro” value is reported as “show antibacterial activity in vitro”. Further, in data set [5], the “Helix content, PA” value stood at 8 ± 3%; the “Helix content, PC” value was found to be 8 ± 4%; the “Helix content, Buffer” value came to 9 ± 2%.

For “LKKNGSCKRGPRTHYGQKAIL (human growth factor) [LKK21, FGF1_HUMAN aa 126-146]”, in data set [2], the “PC + NaCl (CF release, liposome leakage)” value is 6 ± 2 and the “PC − NaCl (CF release, liposome leakage)” value turned out to be 26 ± 3. For the same sequence, the “PA − NaCl (CF release, liposome leakage)” value in data set [3] is listed as 4 ± 2. Moreover, the “antibacterial activity in vitro” value in data set [4] is “shows antibacterial activity in vitro”. In addition, in data set [5], the “Helix content, PA” value came to 10 ± 4%; the “Helix content, PC” value is on record as 13 ± 5%; the “Helix content, Buffer” value was 11 ± 2%.

For “LNGKGAPRRGQKTRRKNTSAH (listed as Homo sapiens) [LNG21]”, the “PC − NaCl (CF release, liposome leakage)” value in data set [2] was 12 ± 2. Besides, in data set [3], the “PA − NaCl (CF release, liposome leakage)” value amounted to 9 ± 5.

Take KRKRKGKGLGKKKDPCLRKF [KRK20: B]: the “Erythrocytes Hemolysis (%) Mean” value in data set [1] was 2.26%.

KRKKKGKGLGKKRDPCLRKY [KRK20: A]: the “Erythrocytes Hemolysis (%) Mean” value in data set [1] was found to be 2.25%.

On to “LLGDFFRKSKEKIGKEFKRIVQRIKDFLRNLVPRTES [LL-37, reference compound]”, for which, in data set [2], the “PC + NaCl (CF release, liposome leakage)” value is given as 73 ± 7 and the “PC − NaCl (CF release, liposome leakage)” value worked out at 100 ± 10. Also, in data set [3], the “PA + NaCl (CF release, liposome leakage)” value stood at 57 ± 6 and the “PA − NaCl (CF release, liposome leakage)” value is on record as 100 ± 10. In data set [5], the “Helix content, PA” value amounted to 100 ± 10%; the “Helix content, PC” value was determined as 100 ± 10%; the “Helix content, Buffer” value is given as 60 ± 10%. The antimicrobial activity spectrum entry in data set [6] was “broad-spectrum antimicrobial activity”.

KRKKKGKGLGKKRWPCLRKY [KRK20: G]: the “Erythrocytes Hemolysis (%) Mean” value in data set [1] is recorded as 2.29%.

As to KRKKKGKGWGKKRDPCLRKY [KRK20: D], the “Erythrocytes Hemolysis (%) Mean” value in data set [1] is reported as 2.56%.

Take “LKIKTKKVNTADQCANRCTRNKGL (listed as Homo sapiens) [LKI24]”: in data set [2], the “PC + NaCl (CF release, liposome leakage)” value is recorded as 6 ± 3 and the “PC − NaCl (CF release, liposome leakage)” value is 54 ± 4. In data set [3], the “PA + NaCl (CF release, liposome leakage)” value is reported as 2 ± 2 and the “PA − NaCl (CF release, liposome leakage)” value came out at 25 ± 4. Further, in data set [5], the “Helix content, PA” value stood at 14 ± 4%; the “Helix content, PC” value came to 9 ± 3%; the “Helix content, Buffer” value is reported as 13 ± 3%.

With “QRAKTPQTRVTIRTVRVRRPP (listed as Homo sapiens) [QRA21]”, in data set [2], the “PC − NaCl (CF release, liposome leakage)” value worked out at 10 ± 1. For the same sequence, in data set [3], the “PA − NaCl (CF release, liposome leakage)” value worked out at 0 ± 1. For the same sequence, in data set [4], the “antibacterial activity in vitro” value is “show antibacterial activity in vitro”.

On to KRKKKGKGWGKKRLPCLRKY [KRK20: E], for which, in data set [1], the “Erythrocytes Hemolysis (%) Mean” value was 2.73%.

As for “RVRRPPKGKHRKFHTHDKTA (RVRRPPKGKHRKFKHTHDKTA; listed as Homo sapiens) [RVR21]”, in data set [2], the “PC + NaCl (CF release, liposome leakage)” value was determined as 6 ± 1 and the “PC − NaCl (CF release, liposome leakage)” value came out at 55 ± 2. In addition, in data set [3], the “PA + NaCl (CF release, liposome leakage)” value stood at 8 ± 2 and the “PA − NaCl (CF release, liposome leakage)” value is listed as 18 ± 8. The “antibacterial activity in vitro” value in data set [4] was “show antibacterial activity in vitro”. In data set [5], the “Helix content, PA” value amounted to 6 ± 3%; the “Helix content, PC” value is recorded as 11 ± 4%; the “Helix content, Buffer” value worked out at 8 ± 4%.

Take “PKRKKKGGKNGKNRRNRKKKN (listed as Homo sapiens) [PKR21]”: in data set [2], the “PC + NaCl (CF release, liposome leakage)” value is 6 ± 1 and the “PC − NaCl (CF release, liposome leakage)” value was 38 ± 3. Besides, the “PA − NaCl (CF release, liposome leakage)” value in data set [3] was found to be 13 ± 8. Also, the “antibacterial activity in vitro” value in data set [4] is on record as “shows antibacterial activity in vitro”. In addition, in data set [5], the “Helix content, PA” value came out at 9 ± 4%; the “Helix content, PC” value is 9 ± 3%; the “Helix content, Buffer” value was determined as 10 ± 2%.

With “LRPVQVRKIEIVRRKPIFKKATVT (LRPVQVRKIEIVRKKPIFKKATVT; listed as Homo sapiens) [LRP24]”, in data set [2], the “PC + NaCl (CF release, liposome leakage)” value was 4 ± 4 and the “PC − NaCl (CF release, liposome leakage)” value was 33 ± 11. Moreover, in data set [3], the “PA + NaCl (CF release, liposome leakage)” value was found to be 6 ± 3 and the “PA − NaCl (CF release, liposome leakage)” value came to 44 ± 10. Besides, the “antibacterial activity in vitro” value in data set [4] is recorded as “show antibacterial activity in vitro”. Further, in data set [5], the “Helix content, PA” value is recorded as 15 ± 3%; the “Helix content, PC” value amounted to 10 ± 4%; the “Helix content, Buffer” value was determined as 13 ± 3%.

KRKKKGKGLGKKRLPCLRKY [KRK20: C]: the “Erythrocytes Hemolysis (%) Mean” value in data set [1] worked out at 2.31%.
